{
  "source": "patent US20100286145A1",
  "about": "“ISOPHTHALAMIDE DERIVATIVES INHIBITING BETA-SECRETASE ACTIVITY” (CoMentis, Inc., priority 2007, published 2010)",
  "data": [
    {"target": "memapsin 2 (Homo sapiens, UniProt P56817)", "sequence (P56817 46-501)": "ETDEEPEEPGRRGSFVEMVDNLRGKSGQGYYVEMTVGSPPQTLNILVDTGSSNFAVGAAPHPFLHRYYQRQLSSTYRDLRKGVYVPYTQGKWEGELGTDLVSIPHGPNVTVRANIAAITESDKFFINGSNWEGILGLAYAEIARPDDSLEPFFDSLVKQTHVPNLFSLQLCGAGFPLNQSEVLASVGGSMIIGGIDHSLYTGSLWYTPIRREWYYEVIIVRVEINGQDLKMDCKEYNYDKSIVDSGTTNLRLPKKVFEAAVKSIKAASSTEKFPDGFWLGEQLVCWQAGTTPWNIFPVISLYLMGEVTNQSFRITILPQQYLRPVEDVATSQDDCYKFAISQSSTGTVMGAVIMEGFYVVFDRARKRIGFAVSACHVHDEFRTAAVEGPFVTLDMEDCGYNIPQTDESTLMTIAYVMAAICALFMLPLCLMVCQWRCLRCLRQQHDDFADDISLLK", "assay": "Inhibition of memapsin 2 beta-secretase activity (fluorogenic substrate FS-2)", "assay_type": "biochemical", "conditions": "memapsin 2, pH 4, 37° C., 20 minutes pre-incubation; read-out: M2Ki", "procedure,_shortened": "(§1)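 Memapsin 2 pre-incubated 20 min with compound at pH 4, 37° C, then FS-2 substrate (MCA-SEVNLDAEFK-DNP, APP Swedish cleavage site) added. Rate of fluorescence increase compared with uninhibited controls, fitted to a tight-binding inhibition model.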", "units": {"Ki": "nM"}, "values": [
      {"molecule": "Cc1csc(CN(C)C(=O)c2cccc(C(=O)N[C@@H](Cc3ccccc3)[C@H](O)CNCc3cc(C(C)C)nc(C(C)C)c3)c2)n1", "note": "[Compound 106, N1-((2S,3R)-4-((2,6-diisopropylpyridin-4-yl)methylamino)-3-hydroxy-1-phenylbutan-2-yl)-N3-methyl-N3-((4-methylthiazol-2-yl)methyl)isophthalamide]", "Ki": "< 300"},
      {"molecule": "Cc1csc(CN(C)C(=O)c2cccc(C(=O)N[C@@H](Cc3ccccc3)[C@H](O)CNCc3ccc(CO)c(C)n3)c2)n1", "note": "[Compound 37, N1-((2S,3R)-3-hydroxy-4-((5-(hydroxymethyl)-6-methylpyridin-2-yl)methylamino)-1-phenylbutan-2-yl)-N3-methyl-N3-((4-methylthiazol-2-yl)methyl)isophthalamide]", "Ki": "> 501"},
      {"molecule": "COc1cccc(CNC[C@@H](O)[C@H](Cc2ccccc2)NC(=O)c2cccc(C(=O)N(C)Cc3cccnc3)c2)c1", "note": "[Compound 55, N1-((2S,3R)-3-hydroxy-4-(3-methoxybenzylamino)-1-phenylbutan-2-yl)-N3-methyl-N3-(pyridin-3-ylmethyl)isophthalamide]", "Ki": "> 501"},
      {"molecule": "CSCc1ccc(CNC[C@@H](O)[C@H](Cc2ccccc2)NC(=O)c2cccc(C(=O)N(C)Cc3nc(C)cs3)c2)nc1C", "note": "[Compound 87, N1-((2S,3R)-3-hydroxy-4-((6-methyl-5-(methylthiomethyl)pyridin-2-yl)methylamino)-1-phenylbutan-2-yl)-N3-methyl-N3-((4-methylthiazol-2-yl)methyl)isophthalamide]", "Ki": "> 501"},
      {"molecule": "Cc1csc(CN(C)C(=O)c2cccc(C(=O)N[C@@H](Cc3ccccc3)[C@H](O)CNCc3ccc(C)c(C)c3)c2)n1", "note": "[Compound 13, N1-((2S,3R)-4-(3,4-dimethylbenzylamino)-3-hydroxy-1-phenylbutan-2-yl)-N3-methyl-N3-((4-methylthiazol-2-yl)methyl)isophthalamide]", "Ki": "< 300"},
      {"molecule": "N3-((2S,3R)-3-hydroxy-4-(3-methoxybenzylamino)-1-phenylbutan-2-yl)-N1,4-dimethyl-N1-((4-methylthiazol-2-yl)methyl)isophthalamide and N1-((2S,3R)-3-hydroxy-4-(3-methoxybenzylamino)-1-phenylbutan-2-yl)-N3,4-dimethyl-N3-((4-methylthiazol-2-yl)methyl)isophthalamide (regioisomeric mixture) [Compound 42]", "Ki": "> 501"},
      {"molecule": "COc1cccc(CNC[C@@H](O)[C@H](Cc2ccccc2)NC(=O)c2cccc(C(=O)N(C)Cc3nc(C)c(C)s3)c2)c1", "note": "[Compound 24, N1-((4,5-dimethylthiazol-2-yl)methyl)-N3-((2S,3R)-3-hydroxy-4-(3-methoxybenzylamino)-1-phenylbutan-2-yl)-N1-methylisophthalamide]", "Ki": "> 501"},
      {"molecule": "COc1cccc(CNC[C@@H](O)[C@H](Cc2ccccc2)NC(=O)c2cccc(C(=O)N(C)Cc3nccc(C)n3)c2)c1", "note": "[Compound 136, N1-((2S,3R)-3-hydroxy-4-(3-methoxybenzylamino)-1-phenylbutan-2-yl)-N3-methyl-N3-((4-methylpyrimidin-2-yl)methyl)isophthalamide]", "Ki": "> 501"},
      {"molecule": "CCN(CC)c1cccc(CNC[C@@H](O)[C@H](Cc2ccccc2)NC(=O)c2cccc(C(=O)N(C)Cc3nc(C)cs3)c2)c1", "note": "[Compound 152, N1-((2S,3R)-4-(3-(diethylamino)benzylamino)-3-hydroxy-1-phenylbutan-2-yl)-N3-methyl-N3-((4-methylthiazol-2-yl)methyl)isophthalamide]", "Ki": "< 300"}
    ]},
    {"target": "memapsin 2 (Homo sapiens, UniProt P56817)", "assay": "Inhibition of memapsin 2 beta-secretase activity (fluorogenic substrate FS-2)", "assay_type": "biochemical", "conditions": "memapsin 2, pH 4, 37° C., fluorogenic substrate FS-2; read-out: M2Ki", "procedure,_shortened": "as §1", "units": {"Ki": "nM"}, "values": [
      {"molecule": "Cc1csc(CN(C)C(=O)c2cc(C(=O)N[C@@H](Cc3ccccc3)[C@H](O)CNCc3cccc(C(F)(F)F)c3)cc(-c3ccco3)c2)n1", "note": "[Compound 305, 5-(furan-2-yl)-N1-((2S,3R)-3-hydroxy-1-phenyl-4-(3-(trifluoromethyl)benzylamino)butan-2-yl)-N3-methyl-N3-((4-methylthiazol-2-yl)methyl)isophthalamide]", "Ki": "< 300"},
      {"molecule": "Cc1csc(CN(C)C(=O)c2cc(C(=O)N[C@@H](Cc3ccccc3)[C@H](O)CNCc3cccc(C(F)(F)F)c3)cc(-c3cnco3)c2)n1", "note": "[Compound 219, N1-((2S,3R)-3-hydroxy-1-phenyl-4-(3-(trifluoromethyl)benzylamino)butan-2-yl)-N3-methyl-N3-((4-methylthiazol-2-yl)methyl)-5-(oxazol-5-yl)isophthalamide]", "Ki": "< 300"},
      {"molecule": "CC(C)c1cncc(CNC[C@@H](O)[C@H](Cc2ccccc2)NC(=O)c2cccc(C(=O)N(C)Cc3nccs3)c2)c1", "note": "[Compound 318, N1-((2S,3R)-3-hydroxy-4-((5-isopropylpyridin-3-yl)methylamino)-1-phenylbutan-2-yl)-N3-methyl-N3-(thiazol-2-ylmethyl)isophthalamide]", "Ki": "< 300"},
      {"molecule": "COc1cccc(CNC[C@@H](O)[C@H](Cc2cc(F)cc(F)c2)NC(=O)c2cc(C(C)=O)cc(C(=O)N[C@H](C)c3ccccc3)c2)c1", "note": "[Compound 306, 5-acetyl-N1-((2S,3R)-1-(3,5-difluorophenyl)-3-hydroxy-4-(3-methoxybenzylamino)butan-2-yl)-N3-((R)-1-phenylethyl)isophthalamide]", "Ki": "< 300"},
      {"molecule": "CCn1cc(CNC[C@@H](O)[C@H](Cc2ccccc2)NC(=O)c2cccc(C(=O)N(C)Cc3nc(C)cs3)c2)cn1", "note": "[Compound 320, N1-((2S,3R)-4-((1-ethyl-1H-pyrazol-4-yl)methylamino)-3-hydroxy-1-phenylbutan-2-yl)-N3-methyl-N3-((4-methylthiazol-2-yl)methyl)isophthalamide]", "Ki": "< 300"},
      {"molecule": "Cc1csc(CN(C)C(=O)c2cc(C(=O)N[C@@H](Cc3ccccc3)[C@H](O)CNCc3cncc(C(C)C)c3)cc(-c3ccoc3)c2)n1", "note": "[Compound 303, 5-(furan-3-yl)-N1-((2S,3R)-3-hydroxy-4-((5-isopropylpyridin-3-yl)methylamino)-1-phenylbutan-2-yl)-N3-methyl-N3-((4-methylthiazol-2-yl)methyl)isophthalamide]", "Ki": "< 300"},
      {"molecule": "Cc1csc(CN(C)C(=O)c2cccc(C(=O)N[C@@H](Cc3ccccc3)[C@H](O)CNCc3cccc(C(F)(F)F)c3O)c2)n1", "note": "[Compound 291, N1-((2S,3R)-3-hydroxy-4-(2-hydroxy-3-(trifluoromethyl)benzylamino)-1-phenylbutan-2-yl)-N3-methyl-N3-((4-methylthiazol-2-yl)methyl)isophthalamide]", "Ki": "> 501"},
      {"molecule": "Cc1csc(CN(C)C(=O)c2cccc(C(=O)N[C@@H](Cc3ccccc3)[C@H](O)CNCc3cncc(NC(C)C)c3)c2)n1", "note": "[Compound 304, N1-((2S,3R)-3-hydroxy-4-((5-(isopropylamino)pyridin-3-yl)methylamino)-1-phenylbutan-2-yl)-N3-methyl-N3-((4-methylthiazol-2-yl)methyl)isophthalamide]", "Ki": "< 300"},
      {"molecule": "Cc1csc(CN(C)C(=O)c2cccc(C(=O)N[C@@H](Cc3ccccc3)[C@H](O)CNCc3cnn(C)c3)c2)n1", "note": "[Compound 287, N1-((2S,3R)-3-hydroxy-4-((1-methyl-1H-pyrazol-4-yl)methylamino)-1-phenylbutan-2-yl)-N3-methyl-N3-((4-methylthiazol-2-yl)methyl)isophthalamide]", "Ki": "< 300"},
      {"molecule": "Cc1csc(CN(C)C(=O)c2cccc(C(=O)N[C@@H](Cc3ccccc3)[C@H](O)CNCc3cncc(C(C)C)c3)c2O)n1", "note": "[Compound 297, 2-hydroxy-N1-((2S,3R)-3-hydroxy-4-((5-isopropylpyridin-3-yl)methylamino)-1-phenylbutan-2-yl)-N3-methyl-N3-((4-methylthiazol-2-yl)methyl)isophthalamide]", "Ki": "> 501"},
      {"molecule": "COC(OC)C(C)c1cncc(CNC[C@@H](O)[C@H](Cc2ccccc2)NC(=O)c2cccc(C(=O)N(C)Cc3nc(C)cs3)c2)c1", "note": "(stereo partly drawn) [Compound 284, N1-((2S,3R)-4-((5-(1,1-dimethoxypropan-2-yl)pyridin-3-yl)methylamino)-3-hydroxy-1-phenylbutan-2-yl)-N3-methyl-N3-((4-methylthiazol-2-yl)methyl)isophthalamide]", "Ki": "< 300"},
      {"molecule": "COc1cccc([C@H](C)NC[C@@H](O)[C@H](Cc2ccccc2)NC(=O)c2cc(C(=O)N(C)Cc3nc(C)cs3)cc(C(F)F)c2)c1", "note": "[Compound 301, 5-(difluoromethyl)-N1-((2S,3R)-3-hydroxy-4-((S)-1-(3-methoxyphenyl)ethylamino)-1-phenylbutan-2-yl)-N3-methyl-N3-((4-methylthiazol-2-yl)methyl)isophthalamide]", "Ki": "< 300"},
      {"molecule": "Cc1csc(CNC[C@@H](O)[C@H](Cc2ccccc2)NC(=O)c2cccc(C(=O)N(C)Cc3nc(C)cs3)c2)n1", "note": "[Compound 294, N1-((2S,3R)-3-hydroxy-4-((4-methylthiazol-2-yl)methylamino)-1-phenylbutan-2-yl)-N3-methyl-N3-((4-methylthiazol-2-yl)methyl)isophthalamide]", "Ki": "> 501"},
      {"molecule": "CC(=O)c1cc(C(=O)N[C@@H](Cc2ccccc2)[C@H](O)CNCc2cncc(C(C)C)c2)cc(C(=O)N[C@H](C)c2ccccc2)c1", "note": "[Compound 308, 5-acetyl-N1-((2S,3R)-3-hydroxy-4-((5-isopropylpyridin-3-yl)methylamino)-1-phenylbutan-2-yl)-N3-((R)-1-phenylethyl)isophthalamide]", "Ki": "< 300"},
      {"molecule": "Cc1csc(CN(C)C(=O)c2cccc(C(=O)N[C@@H](Cc3ccccc3)[C@H](O)CNCc3cc(-c4ccncc4)cc(C(F)(F)F)c3)c2)n1", "note": "[Compound 275, N1-((2S,3R)-3-hydroxy-1-phenyl-4-(3-(pyridin-4-yl)-5-(trifluoromethyl)benzylamino)butan-2-yl)-N3-methyl-N3-((4-methylthiazol-2-yl)methyl)isophthalamide]", "Ki": "< 300"}
    ]},
    {"system": "Aβ production in Chinese hamster ovary cells that over-express human APP695 with the London and Swedish mutations", "assay": "Cellular Aβ IC50 determination (Aβ40 sandwich ELISA)", "assay_type": "cell-based", "conditions": "Cricetulus griseus; cellular Aβ production; read-out: IC50", "method": "The potency of compounds against memapsin 2 activity was determined in a cellular assay of Aβ production. […] Chinese hamster ovary cells that over-express human APP695 with the London and Swedish mutations were seeded in multi-well plates at 10% confluency. Compounds are dissolved in DMSO to concentrations near 1 mM, and diluted into culture media to a final concentration near 4 μM (final 0.4% DMSO). […] Aliquots were removed and assayed for Aβ40 content using a sandwich ELISA (BioSource International). Amount of Aβ40 over the range of concentration of compounds, relative to control incubations, were fit to a 4-parameter IC50 model.", "units": {"IC50": "nM"}, "values": [
      {"molecule": "Cc1csc(CN(C)C(=O)c2cccc(C(=O)N[C@@H](Cc3ccccc3)[C@H](O)CNCc3cc(C(C)C)nc(C(C)C)c3)c2)n1", "note": "[Compound 106, N1-((2S,3R)-4-((2,6-diisopropylpyridin-4-yl)methylamino)-3-hydroxy-1-phenylbutan-2-yl)-N3-methyl-N3-((4-methylthiazol-2-yl)methyl)isophthalamide]", "IC50": "< 1000"}
    ]}
  ]
}
